No end group written: not given here.
Experiments:
MMQ cells [1] = assay: cAMP levels in the MMQ cells; type: cell-based, rat; details: for effect on the dopaminergic inhibition of stimulated cAMP: pertussis toxin as pre-treatment of the cells
Source text: Further studies included measurement of the cAMP levels in the MMQ cells.

[2] = test system: adherent cells of pituitary tumor 7315a
Source text: This isolation involved the use of the solid tumor which was dispersed with collagenase and cultured in RPMI-1640 containing normal horse and calf serum. As previously mentioned, one population is adherent to plastic-ware and the other is non-adherent.

MMQ cells [3] = test system: MMQ cells
Source text: The non-adherent cell has been designated MMQ.
The clonal cell line MMQ, was derived from the non-adherent cells which secrete only prolactin and no detectable amounts of ACTH or any other pituitary hormones.

MMQ cells [4] = assay: 45Ca2+ uptake/efflux in MMQ (floater) cells; type: cell-based, rat
Method: The MMQ cell line was derived from the pituitary tumor 7315a, a cell line that secretes both prolactin and adrenocorticotrophin (ACTH). The MMQ cell line was obtained by cutting a 7315a tumor into small pieces and then dispersing the pieces into a population of single cells by means of incubating tumor pieces with collagenase. These cells were incubated in tissue culture flasks containing RPMI1640, 5% NHS, 5% FCS. […] The floater cells, which we have designated MMQ, were small granular and irregularly shaped in contrast to the cells that adhered to the flasks.

## O=C(CCCN1CCC(O)(c2ccc(Cl)cc2)CC1)c1ccc(F)cc1 [Haloperidol]
MMQ cells [1]
  effect on the dopaminergic inhibition of stimulated cAMP: blocked the dopaminergic effects

## C[C@H](N)C(=O)NCC(=O)N[C@H]1CSSC[C@@H](C(=O)O)NC(=O)[C@H](CO)NC(=O)[C@H]([C@@H](C)O)NC(=O)[C@H](Cc2ccccc2)NC(=O)[C@H]([C@@H](C)O)NC(=O)[C@H](CCCCN)NC(=O)[C@H](Cc2c[nH]c3ccccc23)NC(=O)[C@H](Cc2ccccc2)NC(=O)[C@H](Cc2ccccc2)NC(=O)[C@H](CC(N)=O)NC(=O)[C@H](CCCCN)NC1=O [Somatostatin]
MMQ cells [1]; SRIF 100 nM
  attenuation of forskolin and VIP-stimulated cAMP generation: 30%

## NCCc1ccc(O)c(O)c1 [dopamine]
[2]
  effect on prolactin release stimulated by maitotoxin: not in the adherent ones
MMQ cells [3]; MMQ cells after more than a year in culture
  effect of dopamine on prolactin-release after long-term culture: has not been altered
MMQ cells [3]; clonal MMQ cells
  inhibition of maitotoxin-induced prolactin release: 50-80%
MMQ cells [3]; non-adherent cells
  effect on prolactin release stimulated by maitotoxin: inhibits prolactin release
MMQ cells [1]; Rattus norvegicus, 1 μM of dopamine, read-out: attenuation of forskolin and VIP-stimulated cAMP generation
  inhibition at 1 µM: 50%
MMQ cells [1]; dopamine 50-1000 nM
  effect on VIP-, forskolin- and choleratoxin-increased cellular cAMP levels: inhibited each response in a concentration-dependent manner
MMQ cells [4]; addition of dopamine, MMQ cells
  effect on maitotoxin-induced efflux of 45Ca2+: blocked

## C=C[C@@]1(C)CC(=O)[C@]2(O)[C@@]3(C)[C@@H](O)CCC(C)(C)[C@@H]3[C@H](O)[C@H](OC(C)=O)[C@@]2(C)O1 [forskolin]
MMQ cells [1]
  cellular cAMP levels: increased

## C=CC[C@H](C)[C@H](C)C[C@@H](O)[C@H](O)[C@@H]1CC[C@@]2(C)O[C@@]3(C)C[C@@]4(C)O[C@H]5/C=C\C[C@H]6O[C@H]7C[C@H]8O[C@H]9C[C@@]%10(C)O[C@@](C)([C@@H]%11CC[C@H]%12O[C@@]%13(C)C[C@H]%14O[C@@]%15(C)C[C@H]%16O[C@@]%17(C)C[C@@H](O)[C@H]([C@@H]%18O[C@H]%19[C@H](O)[C@@H](O)[C@H](C[C@H](O)C[C@@H](O)[C@@H]%20O[C@H]%21[C@H](O)[C@@H](O)[C@H]([C@@H]%22O[C@@H]%23[C@H](O)[C@H]%24O[C@H]%25C[C@H]%26O[C@@H](C[C@H](O)[C@@H](O)[C@H]%27O[C@H]%28[C@H](O)[C@H]%29O[C@H]%30C[C@H]%31O[C@H]%32[C@@H](O)[C@@H](O)[C@H]([C@H](C)[C@H](O)[C@H](C)CC[C@H](OS(=O)(=O)O)[C@H](O)[C@H](C)C[C@@H](O)C(=C)/C(C)=C/CO)O[C@@H]%32[C@H](O)C[C@]%31(C)O[C@@H]%30C[C@]%29(C)O[C@@H]%28C[C@H]%27O)[C@H](OS(=O)(=O)O)[C@H](O)[C@@H]%26O[C@@H]%25C[C@@H]%24O[C@H]%23[C@H](O)[C@H]%22O)O[C@H]%21C[C@H]%20O)O[C@H]%19C[C@H]%18O)O[C@@H]%17[C@H](O)[C@]%16(C)O[C@@H]%15CC[C@]%14(C)O[C@@H]%13C[C@@H]%12O%11)[C@H](O)C[C@@H]%10O[C@]9(C)CC[C@]8(C)O[C@]7(C)C[C@@H]6O[C@@H]5C[C@@H]4O[C@@H]3C[C@@H]2O1 [maitotoxin]
MMQ cells [4]; MMQ floater cells loaded with 45Ca2+
  response of MMQ cells to maitotoxin (45Ca2+): modest response

## Vasoactive intestinal peptide (HSDAVFTDNYTRLRKQMAVKKYLNSILN; ends and bridges not checked; UniProt P01282 125-152, looked up) [peptide that increases cellular cAMP levels]
MMQ cells [1]
  cellular cAMP levels: increased

## choleratoxin
MMQ cells [1]
  cellular cAMP levels: increased

## pertussis toxin
MMQ cells [1]
  effect on the dopaminergic inhibition of stimulated cAMP: blocked the dopaminergic effects

Source: patent publication US5510260A, “Prolactin secreting cell line and method of obtaining the same” (Unversity of Virginia Patent Foundation, priority 1993, dated 1996)
